For this assay, the target named is Diacylglycerol kinase alpha (Homo sapiens, UniProt P23743). Kind of assay: Inhibitory Effect Against DGKalpha Enzyme. On the procedure: First, 3×OAG (3 mM)/ATP (0.45 mM) substrate solution was prepared from 1× substrate assay buffer (40 mM MOPS (pH 7.2), 20 mM MgCl2, 1 mM DTT, 0.4 mM CaCl2), 3 mM sodium deoxycholate, 100 mM NaCl, 0.1 mg/mL BSA, 0.12% NP-40), and vortexed thoroughly for 3 minutes to induce detergent-lipid micelle formation. Then, 3×DGKα (7.5 nM) enzyme solution was prepared from 2× enzyme assay buffer (80 mM MOPS (pH 7.2), 2 mM DTT, 200 mM NaCl, 0.2 mg/mL BSA) and vortexed for a short time. After preparing the above two solutions, a half-area opaque 96-well assay plate was prepared, and 10 μL of 3× diluted compound solution (30 μM to 0 μM) was transferred to each well. Next, 10 μL of 3×DGK enzyme solution was transferred to the same plate, mixed by pipetting, and then 10 μL of 3×OAG/ATP substrate solution was added to the assay plate and mixed well. The plate was incubated at room temperature for 20 minutes for the enzyme reaction. Next, 15 μL of ADP-Glo reagent was added to each well and mixed by pipetting, followed by incubating the plate at room temperature for 40 minutes to deplete the remaining ATPs. After this step, 30 μL of kinase detection reagent was added and mixed, and the plate was incubated at room temperature for an additional 20 minutes and luminescence was measured by Envision to calculate the IC50 value of each compound.
Diacylglycerol kinase alpha, sequence (P23743 whole entry): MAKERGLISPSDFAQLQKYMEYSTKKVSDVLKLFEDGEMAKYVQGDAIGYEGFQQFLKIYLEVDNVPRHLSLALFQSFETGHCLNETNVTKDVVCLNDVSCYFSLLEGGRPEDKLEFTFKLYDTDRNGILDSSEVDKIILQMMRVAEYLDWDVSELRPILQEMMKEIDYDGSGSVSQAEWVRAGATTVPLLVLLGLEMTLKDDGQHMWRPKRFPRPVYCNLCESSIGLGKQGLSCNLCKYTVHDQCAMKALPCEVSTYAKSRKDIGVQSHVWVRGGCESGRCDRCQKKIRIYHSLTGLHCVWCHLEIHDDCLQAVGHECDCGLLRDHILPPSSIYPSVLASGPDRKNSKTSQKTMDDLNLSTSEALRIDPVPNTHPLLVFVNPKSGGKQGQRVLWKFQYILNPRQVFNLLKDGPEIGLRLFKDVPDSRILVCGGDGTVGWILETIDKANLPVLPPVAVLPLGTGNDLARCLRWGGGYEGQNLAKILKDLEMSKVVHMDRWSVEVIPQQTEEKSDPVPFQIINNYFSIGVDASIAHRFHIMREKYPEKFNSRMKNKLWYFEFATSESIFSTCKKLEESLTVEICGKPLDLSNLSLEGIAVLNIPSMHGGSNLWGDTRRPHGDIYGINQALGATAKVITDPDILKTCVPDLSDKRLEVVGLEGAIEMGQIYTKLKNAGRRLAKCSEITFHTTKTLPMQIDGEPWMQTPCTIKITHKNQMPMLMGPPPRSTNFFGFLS

For `Cn1c(=O)c(=O)n(C2CCN(Cc3ccc(F)c(Cl)c3)CC2)c2ncc(Cl)cc21` [US20240067645, Example 42], the IC50 is under 300 nM. Regarding `Cn1c(=O)c(=O)n(C2CCN(Cc3ccc(OC(F)(F)F)c(Cl)c3)CC2)c2ncc(Cl)cc21` [US20240067645, Example 43], the IC50 was under 300 nM.

The molecule `Cn1c(=O)c(=O)n(C2CCN(Cc3cccc(Cl)c3)CC2)c2ncc(Cl)cc21` [US20240067645, Example 27] came in with a half-inhibitory concentration (IC50) of under 300 nM. The result for `Cn1c(=O)c(=O)n(C2CCN(Cc3ccc(OC(F)(F)F)cc3)CC2)c2ncc(Br)cc21` [US20240067645, Example 34] reads under 300 nM; that for `Cn1c(=O)c(=O)n(C2CCN(Cc3cccc4c(Cl)cccc34)CC2)c2ncc(Cl)cc21` [US20240067645, Example 35], under 300 nM.

The values are drawn from BindingDB's records for patent US20240067645 (Lg Chem, 2024).
